Measurements reported in patent US10947323B2, “Capped cyclodextrin-hydrophobic moiety conjugate, cyclodextrin supramolecular polymer, and cyclodextrin-siRNA complex and method of synthesis thereof” (SORBONNE UNIVERSITE, priority 2016, dated 2021).

Experiments:
[1] = test system: firefly luciferase GL3 expression in HEK293 cells; assay: KnockDown test of the luciferase GL3 gene (siRNA transfection, One-Glo luminescence); type: cell-based, human; settings: siRNA complexes, N/P ratio of 1190, 24 hours, untransfected cells = 100% expression
Experimental: The cell line to be transfected is a cell line of human embryonic kidney 293 cells (HEK293). This cell line is cultivated with a DMEM medium to which SVF (10%) is added.
The cultures are made in an incubator at 37° C., 5% of CO2. The cell line HEK293 express constitutively the firefly luciferase GL3.
The HEK293 cells are deposited in a 96 wells plaque 1·10^3 cell/wells.
The siRNA which is used is the luciferase GL3 siRNA.
Transfection of cell line HEK293 with the siRNA directed against the firefly luciferase GL3 with as vector of transfection the […] obtained in example 1 or Lipofectamine 2000 (used as a positive reference of transfection) has been carried out.
The efficacy of transfection on the cells has been evaluated by a method of luminescence.
One day before the transfection, the HEK293 cells are deposited in a 96 wells plaque: 1·10^3 cell/wells treated in 200 μL of DMEM, SVF 10%, without antibiotics, in order that the cells reach a 30-50% of confluence the day after.
The day of the transfection, the 200 μL/wells of medium are withdrawn. […]
This latter is incubated at 37° C. during 24 hours until the analysis by luminescence of the KD of the gene of the luciferase (Kit One-Glo luciferase assay (Promega)).
For this aim, 100 μL/wells of reactants are added to the cells before the plaque be analyzed by luminescence.

HEK293 cells = assay: Toxicity test (cell viability, ATP activity, CellTiter Glo 2.0); type: cell-based, human; settings: over the range of N/P ratios, 24 hours
Experimental: In order to evaluate the toxicity of compound 11 of example 1 on HEK293 cells, the kit CellTiter Glo 2.0 (Promega) has been used.
One day before the transfection, the cells HEK293 are deposited in a 96-wells plaque: 1·10^3 cell/wells and then treated with 200 μL of DMEM, SVF 10%, without antibiotics, in order that the cells reach a 30-50% of confluence the day after.
The day of the transfection, the cells are incubated with the complex siRNA-cyclodextrin conjugate obtained in example 1 and Lipofectamine 2000.siRNA at 37° C. during 24 hours until analysis of the cells viability (ATP activity) using a kit CellTiter Glo 2.0.
For this aim 100 μL/wells of CellTiter Glo 2.0. reactant are added to the cells before the plaque be analyzed by luminescence.

siRNA = assay: Agarose gel electrophoresis of siRNA complex formation at increasing N/P ratios; type: binding; settings: at low N/P ratios; 100 V, 40 min
Experimental: In order to characterize the formation of complexes between the siRNA and the compound 11 of the invention obtained in example 1, an electrophorese technique on agarose gel has been used.
The molecule of siRNA and of compound of example 1 have been migrated according to N/P previously chosen.
A solution of 17 μL of siRNA-compound of example 1 is prepared in sterile water and incubated during 20 minutes at ambient temperature.
Then, this solution is deposited on the gel with 3 μL of bromophenol blue before launching the migration: 100 V, 40 min.
Third, thanks to the experiment with agarose electrophoresis gel, it has been shown that capped cyclodextrine-adamantane conjugate are able to interact and to complex siRNA. Indeed, capped cyclodextrine-adamantane complex formation was evaluated at increasing N/P ratios using agarose gel electrophoresis. (FIG. 3)
N/P ratio corresponds to the amount of protonated aminated residue of the cationic species divided by the amount of phosphate residues coming from the nucleic acids.^14 This ratio enables to compare the efficiency of a cationic compound to be complexed with nucleic acids. ^14 Pharmaceutics. 2011, 3, 125-140

- binding (complexation) of siRNA, no migration of siRNA in gel (siRNA): complete binding of siRNA
Compound: OCC1O[C@@H]2O[C@@H]3C(CO)O[C@H](O[C@@H]4C5CN(CCC67CC8CC(CC(C8)C6)C7)CCCCNCC6O[C@H](O[C@@H]7C(CO)O[C@H](O[C@H]1C(O)C2O)C(O)C7O)C(O)C(O)[C@@H]6O[C@H]1OC(CO)[C@@H](O[C@H]2OC(CO)[C@@H](O[C@@H](O5)C(O)C4O)C(O)C2O)C(O)C1O)C(O)C3O (stereo partly drawn) [compose 11]
- knockdown of GL3 luciferase expression [1]: ≤ 50%
- cytotoxicity of transfection with siRNA complexes (HEK293 cells): no cytotoxicity
